Legend:
Assay in all cases: relative viability (nuclei count vs DMSO), 5 days (fraction); higher = more cells survive
Pictilisib + Palbociclib = compound: CS(=O)(=O)N1CCN(Cc2cc3nc(-c4cccc5[nH]ncc45)nc(N4CCOCC4)c3s2)CC1 [Pictilisib] + CC(=O)c1c(C)c2cnc(Nc3ccc(N4CCNCC4)cn3)nc2n(C2CCCC2)c1=O [Palbociclib] (partner 0.5 µM)
In short: (§1)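 Relative viability was taken as the ratio of nuclei in treated wells to nuclei in vehicle wells. Lung cancer cell lines in 1536-well plates received compounds by pin tool one day after seeding, either one drug alone or a fixed anchor-drug dose plus five library-drug doses (not always all listed) in √10 steps. Nuclei were counted on 4× images after 5 days of treatment, and values are medians of duplicate plates.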

Pictilisib + Foretinib = compound: CS(=O)(=O)N1CCN(Cc2cc3nc(-c4cccc5[nH]ncc45)nc(N4CCOCC4)c3s2)CC1 [Pictilisib] + COc1cc2c(Oc3ccc(NC(=O)C4(C(=O)Nc5ccc(F)cc5)CC4)cc3F)ccnc2cc1OCCCN1CCOCC1 [Foretinib] (partner 0.25 µM)
In short: as §1

Pictilisib + Dasatinib = compound: CS(=O)(=O)N1CCN(Cc2cc3nc(-c4cccc5[nH]ncc45)nc(N4CCOCC4)c3s2)CC1 [Pictilisib] + Cc1nc(Nc2ncc(C(=O)Nc3c(C)cccc3Cl)s2)cc(N2CCN(CCO)CC2)n1 [Dasatinib] (partner 0.075 µM)
In short: as §1

Pictilisib + Decitabine = compound: CS(=O)(=O)N1CCN(Cc2cc3nc(-c4cccc5[nH]ncc45)nc(N4CCOCC4)c3s2)CC1 [Pictilisib] + Nc1ncn([C@H]2C[C@H](O)[C@@H](CO)O2)c(=O)n1 [Decitabine] (partner 2 µM)
In short: as §1

MK-2206 + Pemetrexed = compound: NC1(c2ccc(-c3nc4ccn5c(=O)[nH]nc5c4cc3-c3ccccc3)cc2)CCC1 [MK-2206] + Nc1nc2[nH]cc(CCc3ccc(C(=O)N[C@@H](CCC(=O)O)C(=O)O)cc3)c2c(=O)[nH]1 [Pemetrexed] (partner 0.2 µM)
In short: as §1

Row | Cell Line | relative viability (Pictilisib + Palbociclib; first compound 0.02 µM) | relative viability (Pictilisib + Palbociclib; first compound 0.06325 µM) | relative viability (Pictilisib + Palbociclib; first compound 0.6325 µM) | relative viability (Pictilisib + Palbociclib; first compound 2 µM) | relative viability (Pictilisib + Foretinib; first compound 0.02 µM) | relative viability (Pictilisib + Foretinib; first compound 0.06325 µM) | relative viability (Pictilisib + Foretinib; first compound 0.6325 µM) | relative viability (Pictilisib + Foretinib; first compound 2 µM) | relative viability (Pictilisib + Dasatinib; first compound 0.02 µM) | relative viability (Pictilisib + Dasatinib; first compound 0.06325 µM) | relative viability (Pictilisib + Dasatinib; first compound 0.6325 µM) | relative viability (Pictilisib + Dasatinib; first compound 2 µM) | relative viability (Pictilisib + Decitabine; first compound 0.02 µM) | relative viability (Pictilisib + Decitabine; first compound 0.06325 µM) | relative viability (Pictilisib + Decitabine; first compound 0.6325 µM) | relative viability (Pictilisib + Decitabine; first compound 2 µM) | relative viability (MK-2206 + Pemetrexed; first compound 0.01 µM) | relative viability (MK-2206 + Pemetrexed; first compound 0.03162 µM) | relative viability (MK-2206 + Pemetrexed; first compound 0.3162 µM) | relative viability (MK-2206 + Pemetrexed; first compound 1 µM)
1 | NCI-H2342 | 0.515 | 0.507 | 0.444 | 0.403 | 0.991 | 1.02 | 0.805 | 0.539 | 0.263 | 0.305 | 0.289 | 0.267 | 0.736 | 0.672 | 0.688 | 0.445 | 0.663 | 0.782 | 0.675 | 0.738
2 | NCI-H2347 | 0.448 | 0.398 | 0.433 | 0.363 | 0.843 | 0.937 | 1.19 | 0.438 | 0.321 | 0.297 | 0.337 | 0.215 | 0.663 | 0.658 | 0.579 | 0.502 | 0.408 | 0.44 | 0.433 | 0.45
3 | NCI-H2405 | 0.579 | 0.536 | 0.474 | 0.374 | 1.01 | 0.965 | 0.847 | 0.562 | 0.231 | 0.217 | 0.189 | 0.168 | 0.765 | 0.72 | 0.571 | 0.388 | 1.01 | 1.07 | 1.02 | 0.978
4 | NCI-H3122 | 0.181 | 0.194 | 0.176 | 0.139 | 0.998 | 0.997 | 0.973 | 0.785 | 0.876 | 0.926 | 0.54 | 0.179 | 0.443 | 0.412 | 0.287 | 0.115 | 0.202 | 0.197 | 0.203 | 0.193
5 | PC-3 [JPC-3] | 0.539 | 0.494 | 0.534 | 0.456 | 1.01 | 1.09 | 0.931 | 0.827 | 0.965 | 1.02 | 1.03 | 0.555 | 0.84 | 0.92 | 0.813 | 0.748 | 1.12 | 1.24 | 1.23 | 1.07
6 | PC-14 | 0.488 | 0.564 | 0.507 | 0.334 | 1.04 | 0.976 | 0.953 | 0.805 | 0.274 | 0.291 | 0.17 | 0.095 | 0.245 | 0.254 | 0.302 | 0.322 | 0.129 | 0.14 | 0.164 | 0.144
7 | RERF-LC-KJ | 1.02 | 1.15 | 0.815 | 0.711 | 0.879 | 0.847 | 0.709 | 0.627 | 0.802 | 0.811 | 0.687 | 0.451 | 0.711 | 0.618 | 0.54 | 0.479 | 0.489 | 0.471 | 0.532 | 0.476
8 | SK-LU-1 | 0.401 | 0.382 | 0.307 | 0.31 | 0.878 | 0.892 | 0.652 | 0.422 | 0.159 | 0.168 | 0.103 | 0.109 | 0.612 | 0.695 | 0.559 | 0.525 | 0.964 | 0.963 | 1.04 | 0.962
9 | SK-MES-1 | 0.326 | 0.302 | 0.346 | 0.262 | 1.02 | 0.86 | 0.494 | 0.271 | 0.304 | 0.308 | 0.128 | 0.117 | 0.351 | 0.388 | 0.359 | 0.339 | 0.881 | 0.938 | 0.899 | 0.816
10 | SW 900 | 0.543 | 0.58 | 0.358 | 0.252 | 0.93 | 0.815 | 0.774 | 0.533 | 0.577 | 0.547 | 0.264 | 0.255 | 0.367 | 0.524 | 0.45 | 0.418 | 0.494 |  | 0.497 | 0.491
11 | SW 1573 | 0.417 | 0.345 | 0.207 | 0.191 | 0.865 | 0.805 | 0.706 | 0.501 | 0.485 | 0.524 | 0.288 | 0.161 | 0.688 | 0.587 | 0.354 | 0.285 | 0.782 | 0.793 | 0.726 | 0.713

Source: the supplement of paper PMC10307832
